# Laboratory results from ChEMBL document CHEMBL3745715, “Sulfonamide inhibition studies of the α-carbonic anhydrase from the gammaproteobacterium Thiomicrospira crunogena XCL-2, TcruCA” (Bioorg Med Chem Lett, 2016).
# pKi: −log10 of the molar value.
# How the values were obtained:
# [1] = target: Carbonic anhydrase, alpha family (Thiomicrospira crunogena, UniProt Q31FD6)
# Description: Inhibition of recombinant Thiomicrospira crunogena XCL-2 carbonic anhydrase by stopped flow CO2 hydrase assay
# Carbonate dehydratase = target: T1, Carbonate dehydratase (Sulfurihydrogenibium sp. (strain YO3AOP1), UniProt B2V8E3)
# T1 sequence (B2V8E3 whole entry): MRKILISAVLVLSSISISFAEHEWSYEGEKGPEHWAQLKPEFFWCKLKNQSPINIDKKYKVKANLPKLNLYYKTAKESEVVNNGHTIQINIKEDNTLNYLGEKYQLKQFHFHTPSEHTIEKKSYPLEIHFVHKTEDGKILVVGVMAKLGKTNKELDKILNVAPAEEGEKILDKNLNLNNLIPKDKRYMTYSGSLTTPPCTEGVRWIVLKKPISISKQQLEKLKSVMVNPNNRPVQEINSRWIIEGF
# Description: Inhibition of recombinant Sulfurihydrogenibium yellowstonense YO3AOP1 carbonic anhydrase by stopped flow CO2 hydrase assay
# Chain of Carbonic anhydrase, alpha family (Q31FD6 whole entry): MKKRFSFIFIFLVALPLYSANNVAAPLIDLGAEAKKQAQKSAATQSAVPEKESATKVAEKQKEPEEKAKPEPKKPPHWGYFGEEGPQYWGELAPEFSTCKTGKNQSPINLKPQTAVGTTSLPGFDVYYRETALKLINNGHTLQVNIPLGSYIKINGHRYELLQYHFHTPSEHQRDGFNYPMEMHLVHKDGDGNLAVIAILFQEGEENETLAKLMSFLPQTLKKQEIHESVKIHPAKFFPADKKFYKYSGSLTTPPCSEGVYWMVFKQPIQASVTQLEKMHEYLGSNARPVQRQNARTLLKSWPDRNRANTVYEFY
Structure (SMILES),pKi [1],pKi (Carbonate dehydratase)
NNc1ccccc1S(N)(=O)=O,7.15,6.16
Nc1nnc(S(N)(=O)=O)s1,7.55,6.86
Nc1ccc(S(=O)(=O)NCc2ccc(S(N)(=O)=O)cc2)cc1,6.34,8.11
Nc1cc(Cl)c(S(N)(=O)=O)cc1S(N)(=O)=O,7.26,–
Nc1ccc(S(N)(=O)=O)cc1I,–,7.35
Nc1ccc(S(=O)(=O)Nc2nnc(S(N)(=O)=O)s2)cc1,8.25,8.26
NS(=O)(=O)c1nnc(-c2ccccc2Cl)s1,8.60,7.15
Nc1nccc(Nc2ccc(S(N)(=O)=O)cc2)n1,7.03,8.19
NS(=O)(=O)c1nc2ccc(O)cc2s1,7.39,–
Nc1ccc(S(N)(=O)=O)cc1Br,6.26,7.12
Cn1nc(S(N)(=O)=O)sc1=N,8.32,6.36
NS(=O)(=O)c1ccc(CCO)cc1,7.50,6.79
Nc1ccc(S(N)(=O)=O)cc1F,7.09,7.17
NS(=O)(=O)c1ccc(CO)cc1,7.67,6.31
NCCc1ccc(S(N)(=O)=O)cc1,6.31,–
Nc1ccc(S(N)(=O)=O)cc1Cl,7.10,7.39
Nc1ccc(S(=O)(=O)NCCc2ccc(S(N)(=O)=O)cc2)cc1,6.40,8.01
NNc1ccc(S(N)(=O)=O)cc1,7.07,6.10
"Nc1cc(C(F)(F)F)c(S(N)(=O)=O)cc1S(N)(=O)=O [2,4-DISULFAMYLTRIFLUOROMETHYLANILINE]",7.17,–
NS(=O)(=O)c1nnc(NS(=O)(=O)c2ccccc2)s1 [BENZOLAMIDE],8.57,–
CCN[C@H]1CN(CCCOC)S(=O)(=O)c2sc(S(N)(=O)=O)cc21 [BRINZOLAMIDE],8.38,7.91
NS(=O)(=O)c1ccc(C(=O)O)cc1 [CARZENIDE],7.07,7.14
Cc1ccc(-c2cc(C(F)(F)F)nn2-c2ccc(S(N)(=O)=O)cc2)cc1 [CELECOXIB],6.01,8.16
CCOc1ccc2nc(S(N)(=O)=O)sc2c1 [ETHOXZOLAMIDE],8.39,–
NCc1ccc(S(N)(=O)=O)cc1 [MAFENIDE],6.69,6.46
Cc1ccc(S(N)(=O)=O)cc1 [P-TOLUENESULFONAMIDE],6.61,6.07
O=C1NS(=O)(=O)c2ccccc21 [SACCHARIN],6.03,6.06
Nc1ccc(S(N)(=O)=O)cc1 [SULFANILAMIDE],6.20,6.19
CC1(C)O[C@@H]2[C@@H](CO[C@@]3(COS(N)(=O)=O)OC(C)(C)O[C@@H]23)O1 [TOPIRAMATE],6.11,8.18
